# Measured values: patent US20230181746A1, “BENZOYLHYDRAZIDE-DERIVED HDAC DEGRADERS AS THERAPEUTICS FOR TREATING CANCER AND OTHER HUMAN DISEASES” (University of Florida Research Foundation, Inc., priority 2020, published 2023)
# Tests used:
# [1] = biological target: T1, HDAC3 (in complex with the deacetylase activation domain of the human NCOR2 (amino acids 395-498)) (Homo sapiens, UniProt O15379); experiment: In vitro HDAC activity assay (HDAC-Glo I/II), HDAC3; assay type: biochemical; settings: HDAC-Glo I/II; average of three independent assays ± standard deviation
# T1 construct: purchased BPS Bioscience 50003
# T1 sequence (O15379 whole entry, the tested form may be a part): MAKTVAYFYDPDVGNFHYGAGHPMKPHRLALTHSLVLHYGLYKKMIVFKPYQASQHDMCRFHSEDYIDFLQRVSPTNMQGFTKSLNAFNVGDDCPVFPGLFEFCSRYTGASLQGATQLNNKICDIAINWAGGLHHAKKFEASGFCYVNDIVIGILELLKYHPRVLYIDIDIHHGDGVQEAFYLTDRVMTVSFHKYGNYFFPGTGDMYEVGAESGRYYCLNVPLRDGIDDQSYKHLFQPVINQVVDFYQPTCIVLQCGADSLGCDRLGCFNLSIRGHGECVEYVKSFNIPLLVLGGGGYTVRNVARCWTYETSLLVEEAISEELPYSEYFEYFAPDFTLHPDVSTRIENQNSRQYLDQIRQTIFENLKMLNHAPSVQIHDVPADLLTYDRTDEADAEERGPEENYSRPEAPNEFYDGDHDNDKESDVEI
# T1 sequence (Q9Y618 395-498 partner limits assumed): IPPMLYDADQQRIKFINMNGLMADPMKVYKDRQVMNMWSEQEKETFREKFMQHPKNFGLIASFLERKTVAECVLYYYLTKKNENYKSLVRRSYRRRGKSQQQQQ
# Experimental: (§1) Purified HDAC1, HDAC2, and HDAC3 (in complex with the deacetylase activation domain of the human NCOR2 (amino acids 395-498)) were obtained from Enzo Life Sciences (HDAC1, catalog # BML-SE456-0050) and BPS Bioscience (HDAC2, catalog #50002 and HDAC3, catalog #50003), respectively. The enzyme activities were tested using the HDAC-Glo I/II reagents (Promega) according to a protocol provided by the manufacturer.
# [2] = biological target: HDAC2 (Homo sapiens, UniProt Q92769); experiment: HDAC2 protein level in breast cancer cell lines, Western blot; assay type: cell-based; settings: MDA-MB-468 cells, 14 h
# Chain of HDAC2 (Q92769 whole entry): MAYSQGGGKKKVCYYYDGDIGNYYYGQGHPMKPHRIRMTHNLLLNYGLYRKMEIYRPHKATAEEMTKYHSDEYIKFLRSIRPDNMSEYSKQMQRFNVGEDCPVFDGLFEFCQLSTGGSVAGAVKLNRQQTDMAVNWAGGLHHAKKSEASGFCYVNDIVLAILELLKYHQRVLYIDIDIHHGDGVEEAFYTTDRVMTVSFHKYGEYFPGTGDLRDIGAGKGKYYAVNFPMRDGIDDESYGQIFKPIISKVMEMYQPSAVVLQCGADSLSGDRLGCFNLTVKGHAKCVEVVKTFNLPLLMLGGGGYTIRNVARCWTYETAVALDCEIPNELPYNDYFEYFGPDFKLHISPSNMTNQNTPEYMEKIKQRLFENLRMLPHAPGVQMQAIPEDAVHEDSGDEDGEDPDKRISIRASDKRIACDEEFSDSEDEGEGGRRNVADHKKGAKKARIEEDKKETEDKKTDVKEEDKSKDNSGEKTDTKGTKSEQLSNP
# Experimental: FIG. 3A: Western blot showing HDAC protein levels in MDA-MB-468 cells treated with the indicated concentration of XZ9002 for 14 h. FIG. 3B: pretreatment with 1 μM MG132, or 10 μM VHL032 for 1 h blocked the degradation of HDAC3 by XZ9002 {125 nM}. […] NC: XZ9002-NC. FIG. 3C: time-dependent experiment in MDA-MB-468 cells after treatment with 125 nM XZ9002 at the indicated time points. FIG. 3D: MDA-MB-468 cells were incubated with 125 nM of XZ9002 for 14 h followed by drug washout, and incubation of the cells in drug-free medium for an additional time. Data are presented as representative figures of two independent experiments.
# (§2) The culture of the triple-negative breast cancer cell line MDA-MB-468 and the ER+ breast cancer cell line T47D was exposed to vehicle control (DMSO) and the indicated compounds at specified concentrations for 14 h. Cells were lysed for WB with antibodies against the indicated proteins. Antibodies against acetylated histones at specific sites (H3K27 and H4K5) and acetyl-lysine were used to assess levels of histone acetylation. Levels of HDAC3 were normalized against that of tubulin and % of HDAC3 protein levels in cells treated with the indicated compounds relative to that in DMSO control is shown.
# FIGS. 8A-8B show the cellular activity of XZ9002. […] Cells were lysed for WB. The relative HDAC3 protein level in each sample is shown. […]
# [3] = test system: histone acetylation (H3K27ac, H4K5ac, acetyl-lysine); experiment: Histone acetylation in cells, Western blot; assay type: cell-based; settings: MDA-MB-468 cells; only moderate effects compared to 15 and CRBN-based PROTACs
# Experimental: as §2
# Cell lines were obtained from ATCC and subsequently authenticated. Cells were cultured with DMEM supplemented with 10% bovine calf serum, penicillin to 10 units/mL, and streptomycin to 10 μg/mL. For viability assays, 5,000 cells/well were seeded in 96-well plates. Compounds at a specified concentration or DMSO were added 24 h later. Viability assays were performed 72 h after compound addition using the CellTiter-Glo reagents (Promega). For colony formation assay, cells (˜1,000 cells/well) were seeded in a 24-well plate in quadruplicates. At 24 h after seeding, DMSO, XZ9002, or XZ9002-NC were added at a specified concentration. […]
# [4] = biological target: HDAC1 (Homo sapiens, UniProt Q13547); experiment: In vitro HDAC activity assay (HDAC-Glo I/II), HDAC1; assay type: biochemical; parameters: purchased Enzo Life Sciences BML-SE456-0050; settings: average of three independent assays ± standard deviation
# Chain of HDAC1 (Q13547 whole entry): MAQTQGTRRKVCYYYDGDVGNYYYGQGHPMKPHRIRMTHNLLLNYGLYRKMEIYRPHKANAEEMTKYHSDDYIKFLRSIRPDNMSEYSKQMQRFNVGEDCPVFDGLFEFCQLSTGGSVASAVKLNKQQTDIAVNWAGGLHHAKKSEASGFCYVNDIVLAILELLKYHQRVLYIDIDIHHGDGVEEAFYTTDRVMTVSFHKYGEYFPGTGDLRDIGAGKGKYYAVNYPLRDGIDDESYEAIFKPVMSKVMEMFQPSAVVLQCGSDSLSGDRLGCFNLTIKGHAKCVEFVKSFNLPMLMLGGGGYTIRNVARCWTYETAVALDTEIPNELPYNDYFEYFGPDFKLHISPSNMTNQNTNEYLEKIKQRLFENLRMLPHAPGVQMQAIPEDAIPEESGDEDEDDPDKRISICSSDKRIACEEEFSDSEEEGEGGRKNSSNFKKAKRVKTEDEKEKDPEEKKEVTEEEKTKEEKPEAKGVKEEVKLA
# Experimental: as §1
# [5] = biological target: HDAC3 (Homo sapiens, UniProt O15379); experiment: HDAC3 degradation in MDA-MB-231 xenograft tumors; assay type: in vivo; parameters: from tissue; host or cells: MDA-MB-231 xenograft tumours from NSG mice; settings: female NSG mice, MDA-MB-231 xenografts, 50 mg/kg i.p., tumors 24 h after dosing
# Chain of HDAC3 (O15379 whole entry): as the sequence (O15379 whole entry, the tested form may be a part) above
# Chain of HDAC3 (Q9Y618 395-498 partner limits assumed): as the sequence (Q9Y618 395-498 partner limits assumed) above
# Experimental: NSG mice bearing MDA-MB-231 xenografts were dosed with vehicle or XZ9002 (50 mg/kg) by i.p. Tumors were dissected from euthanized mice 24 h after dosing. The tumor lysates were analyzed by WB. The quantification is shown in lower panels. ***: p<0.0001 (t-test vs vehicle).
structure (smiles),measurement,setting,value
"CCCNNC(=O)c1ccc(-c2ccc(NC(=O)CCCCCCC(=O)N[C@H](C(=O)N3C[C@H](O)C[C@H]3C(=O)N[C@@H](C)c3ccc(-c4scnc4C)cc3)C(C)(C)C)cc2)cc1 [XZ9002, N^1—((S)-1-((2S,4R)-4-hydroxy-2-(((S)-1-(4-(4-methylthiazol-5-yl)phenyl)ethyl)carbamoyl)pyrrolidin-1-yl)-3,3-dimethyl-1-oxobutan-2-yl)-N^5-(4′-(2-propylhydrazine-1-carbonyl)-[1,1′-biphenyl]-4-yl)octanediamide]",IC50,[1],0.35 ± 0.07 µM
same,change in HDAC2 protein level,[2],no significant changes
same,histone acetylation,[3],dose-dependently increased
same,IC50,[4],0.65 ± 0.07 µM
same,HDAC3 degradation in xenograft tumor,[5],effectively degrade
